Measured values from patent US10105357B2, “Indication of antibiotic drugs for preparation of cancer inhibition pharmaceutical composition” (LAUNX BIOMEDICAL CO., LTD., priority 2014, dated 2018).
Counter-ions that a name gives are not always drawn. Like-named read-outs stand apart in the source and are kept apart here.

What was measured:
NIH: OVCAR-3 = experiment: Cell viability analysis, ovarian cancer NIH: OVCAR-3; assay type: cell-based, human
[1] = system: A549 (Lung Adenocarcinoma); experiment: Cell viability analysis, lung cancer A549; assay type: cell-based, human; conditions: for viability at 10 µM: Homo sapiens, A549
[2] = system: A375 (Amelanotic Melanoma); experiment: Cell viability analysis, skin cancer A375; assay type: cell-based, human; conditions: for viability at 10 µM: Homo sapiens
[3] = system: HeLa (Cervix Adenocarcinoma); experiment: Cell viability analysis, cervical cancer HeLa; assay type: cell-based, human; conditions: for viability at 10 µM: Homo sapiens, HeLa
[4] = system: HCT116 (p53+) (Colorectal Carcinoma)
T24 = experiment: Cell viability analysis, bladder cancer T24; assay type: cell-based, human
[5] = system: HI650 (Lung Adenocarcinoma); experiment: Cell viability analysis, lung cancer HI650; assay type: cell-based, human; conditions: for viability at 10 µM: Homo sapiens
[6] = system: AGS (Gastric Adenocarcinoma); experiment: Cell viability analysis, gastric cancer AGS; assay type: cell-based, human; conditions: for viability at 10 µM: Homo sapiens
[7] = system: BCC (basal cell carcinoma); experiment: Cell viability analysis, skin cancer BCC; assay type: cell-based, human
U-2OS = experiment: Cell viability analysis, osteosarcoma U-2OS; assay type: cell-based, human
[8] = system: TSGH-8301 (Urinary Bladder Carcinoma); experiment: Cell viability analysis, bladder cancer TSGH-8301; assay type: cell-based, human; conditions: for viability at 10 µM: Homo sapiens
TOV-21G = experiment: Cell viability analysis, ovarian cancer TOV-21G; assay type: cell-based, human
[9] = system: MCF7 (Mammary Gland, Adenocarcinoma); experiment: Cell viability analysis, breast cancer MCF7; assay type: cell-based, human; conditions: for viability at 10 µM: Homo sapiens
[10] = system: Hep3B (hepatocellular carcinoma); experiment: Cell viability analysis, hepatic cancer Hep3B; assay type: cell-based, human
[11] = system: LoVo (Colorectal Adenocarcinoma); experiment: Cell viability analysis, colon cancer LoVo; assay type: cell-based, human; conditions: for viability at 10 µM: Homo sapiens, LoVo
AsPC-1 = experiment: Cell viability analysis, pancreatic cancer AsPC-1; assay type: cell-based, human
[12] = system: C-33A (Cervical carcinoma); experiment: Cell viability analysis, cervical cancer C-33A; assay type: cell-based, human
[13] = system: SAS (Tongue squamous cell carcinoma); experiment: Cell viability analysis, tongue cancer SAS; assay type: cell-based, human
[14] = system: MKN-45 (Gastric Adenocarcinoma); experiment: Cell viability analysis, gastric cancer MKN-45; assay type: cell-based, human; conditions: for viability at 10 µM: Homo sapiens, MKN-45
[15] = system: MDA-MB-231 (Mammary Gland, Adenocarcinoma); experiment: Cell viability analysis, breast cancer MDA-MB-231; assay type: cell-based, human
[16] = system: PC3 (p53−) (Prostate Adenocarcinoma); experiment: Cell viability analysis, prostate cancer PC3; assay type: cell-based, human; conditions: for viability at 10 µM: Homo sapiens
[17] = system: 786-O (Renal adenocarcinoma); experiment: Cell viability analysis, renal cancer 786-O; assay type: cell-based, human
BxPC-3 = experiment: Cell viability analysis, pancreatic cancer BxPC-3; assay type: cell-based, human
[18] = system: HepG2 (Hepatocellular Carcinoma); experiment: Cell viability analysis, hepatic cancer HepG2; assay type: cell-based, human; conditions: for viability at 10 µM: Homo sapiens, HepG2
cancer cell lines = experiment: Cell viability analysis (WST-1) on cancer cell lines; assay type: cell-based, human; conditions: drug 10 μM, 72 hours, WST-1; Table 3

CN(C)C(=O)C(CCN1CCC(O)(c2ccc(Cl)cc2)CC1)(c1ccccc1)c1ccccc1 [Loperamide hydrochloride] was tested, and the viability at 10 µM (NIH: OVCAR-3; Homo sapiens, OVCAR-3, 72 h, read-out: The results of antibiotic drug inhibiting cancer cell lines (cell viability analysis), NIH-OVCAR-3) was 75.5%, the viability at 10 µM ([1]; 72 h, repeated experiment, read-out: The results of antibiotic drug inhibiting cancer cell lines (cell viability analysis), A549) was 26.2% and the viability at 10 µM ([1]; drug 10 μM, 72 hours, WST-1, OD450 nm, read-out: cell viability (survival rate), A549) was 104%. For the same compound, the viability at 10 µM ([2]; A-375, 72 h, A375, repeated experiment, read-out: The results of antibiotic drug inhibiting cancer cell lines (cell viability analysis), A375) was 34.3%, the viability at 10 µM ([2]; A-375, drug 10 μM, 72 hours, WST-1, OD450 nm, read-out: cell viability (survival rate), A375) was 58.8% and the viability at 10 µM ([3]; 72 h, repeated experiment, read-out: The results of antibiotic drug inhibiting cancer cell lines (cell viability analysis), HeLa) was 36.8%. For the same compound, the viability at 10 µM ([3]; drug 10 μM, 72 hours, WST-1, OD450 nm, read-out: cell viability (survival rate), HeLa) was 73%, the viability [4] was 47.3% and the viability at 10 µM (T24; Homo sapiens, T-24, 72 h, read-out: The results of antibiotic drug inhibiting cancer cell lines (cell viability analysis), T24) was 73.5%. For the same compound, the viability at 10 µM ([5]; NCI-H1650, 72 h, H1650, repeated experiment, read-out: The results of antibiotic drug inhibiting cancer cell lines (cell viability analysis), H1650) was 41.3%, the viability at 10 µM ([5]; NCI-H1650, drug 10 μM, 72 hours, WST-1, OD450 nm, read-out: cell viability (survival rate), H1650) was 66.7% and the viability at 10 µM ([6]; 72 h, AGS, repeated experiment, read-out: The results of antibiotic drug inhibiting cancer cell lines (cell viability analysis), AGS) was 22.2%. For the same compound, the viability at 10 µM ([6]; drug 10 μM, 72 hours, WST-1, OD450 nm, read-out: cell viability (survival rate), AGS) was 57.3%, the viability at 10 µM ([7]; Homo sapiens, 72 h, read-out: The results of antibiotic drug inhibiting cancer cell lines (cell viability analysis), BCC) was 51.5% and the viability at 10 µM (U-2OS; Homo sapiens, U2OS, 72 h, read-out: The results of antibiotic drug inhibiting cancer cell lines (cell viability analysis), U2OS) was 32%. For the same compound, the viability at 10 µM ([8]; 72 h, TSGH-8301, repeated experiment, read-out: The results of antibiotic drug inhibiting cancer cell lines (cell viability analysis), TSGH-8301) was 42.9%, the viability at 10 µM ([8]; drug 10 μM, 72 hours, WST-1, OD450 nm, read-out: cell viability (survival rate), TSGH) was 42.7% and the viability at 10 µM (TOV-21G; Homo sapiens, TOV21G, 72 h, read-out: The results of antibiotic drug inhibiting cancer cell lines (cell viability analysis), TOV-21G) was 24.2%. It also gave a viability at 10 µM ([9]; MCF7, 72 h, MCF-7, repeated experiment, read-out: The results of antibiotic drug inhibiting cancer cell lines (cell viability analysis), MCF-7) of 36.2%, a viability at 10 µM ([9]; MCF7, drug 10 μM, 72 hours, WST-1, OD450 nm, read-out: cell viability (survival rate), MCF7) of 78.9% and a viability at 10 µM ([10]; Homo sapiens, Hep3B, 72 h, read-out: The results of antibiotic drug inhibiting cancer cell lines (cell viability analysis), Hep3B) of 50.2%. It also gave a viability at 10 µM ([11]; 72 h, repeated experiment, read-out: The results of antibiotic drug inhibiting cancer cell lines (cell viability analysis), LoVo) of 49.3%, a viability at 10 µM ([11]; drug 10 μM, 72 hours, WST-1, OD450 nm, read-out: cell viability (survival rate), LoVo) of 64.8% and a viability at 10 µM (AsPC-1; Homo sapiens, ASPC1, 72 h, read-out: The results of antibiotic drug inhibiting cancer cell lines (cell viability analysis), AsPC-1) of 47.5%. The viability at 10 µM ([12]; Homo sapiens, C-33-A, 72 h, read-out: The results of antibiotic drug inhibiting cancer cell lines (cell viability analysis), C-33A) was 39.6%, the viability at 10 µM ([13]; Homo sapiens, 72 h, read-out: The results of antibiotic drug inhibiting cancer cell lines (cell viability analysis), SAS) was 31.8% and the viability at 10 µM ([14]; 72 h, repeated experiment, read-out: The results of antibiotic drug inhibiting cancer cell lines (cell viability analysis), MKN-45) was 61.5%. For the same compound, the viability at 10 µM ([14]; drug 10 μM, 72 hours, WST-1, OD450 nm, read-out: cell viability (survival rate), MKN-45) was 64.3%, the viability at 10 µM ([15]; Homo sapiens, MDA-MB-231, 72 h, read-out: The results of antibiotic drug inhibiting cancer cell lines (cell viability analysis), MDA-MB231) was 72.5% and the viability at 10 µM ([16]; 72 h, PC-3, repeated experiment, read-out: The results of antibiotic drug inhibiting cancer cell lines (cell viability analysis), PC-3) was 41.6%. For the same compound, the viability at 10 µM ([16]; drug 10 μM, 72 hours, WST-1, OD450 nm, read-out: cell viability (survival rate), PC3) was 64.7%, the viability at 10 µM ([17]; Homo sapiens, 786-0, 72 h, read-out: The results of antibiotic drug inhibiting cancer cell lines (cell viability analysis), 786-O) was 40.9% and the viability at 10 µM (BxPC-3; Homo sapiens, BXPC-3, 72 h, read-out: The results of antibiotic drug inhibiting cancer cell lines (cell viability analysis), BxPC-3) was 35.7%. The viability at 10 µM ([18]; 72 h, repeated experiment, read-out: The results of antibiotic drug inhibiting cancer cell lines (cell viability analysis), HepG2) was 35.8%, the viability at 10 µM ([18]; drug 10 μM, 72 hours, WST-1, OD450 nm, read-out: cell viability (survival rate), HepG2) was 103% and the “inhibition effect on different cancer cell lines” value (cancer cell lines) was “significant inhibition effect”.
Cc1cc(C2CCCCC2)n(O)c(=O)c1.NCCO [Ciclopirox ethanolamine] was tested, and the “The results of antibiotic drug inhibiting cancer cell lines (cell viability analysis), NIH-OVCAR-3” value (NIH: OVCAR-3) was 66.99, the “The results of antibiotic drug inhibiting cancer cell lines (cell viability analysis), A549” value [1] was 23.67 and the “The results of antibiotic drug inhibiting cancer cell lines (cell viability analysis), A375” value [2] was 21.76. The “The results of antibiotic drug inhibiting cancer cell lines (cell viability analysis), HeLa” value [3] was 41.02, the viability [4] was 29.5% and the “The results of antibiotic drug inhibiting cancer cell lines (cell viability analysis), T24” value (T24) was 41.2. The “The results of antibiotic drug inhibiting cancer cell lines (cell viability analysis), H1650” value [5] was 53.76, the “The results of antibiotic drug inhibiting cancer cell lines (cell viability analysis), AGS” value [6] was 36.59 and the “The results of antibiotic drug inhibiting cancer cell lines (cell viability analysis), BCC” value [7] was 29.08. The “The results of antibiotic drug inhibiting cancer cell lines (cell viability analysis), U2OS” value (U-2OS) was 51.75, the “The results of antibiotic drug inhibiting cancer cell lines (cell viability analysis), TSGH-8301” value [8] was 43.63 and the “The results of antibiotic drug inhibiting cancer cell lines (cell viability analysis), TOV-21G” value (TOV-21G) was 28.95. For the same compound, the “The results of antibiotic drug inhibiting cancer cell lines (cell viability analysis), MCF-7” value [9] was 53.67, the “The results of antibiotic drug inhibiting cancer cell lines (cell viability analysis), Hep3B” value [10] was 48.66 and the “The results of antibiotic drug inhibiting cancer cell lines (cell viability analysis), LoVo” value [11] was 65.53. The “The results of antibiotic drug inhibiting cancer cell lines (cell viability analysis), AsPC-1” value (AsPC-1) was 46.57, the “The results of antibiotic drug inhibiting cancer cell lines (cell viability analysis), C-33A” value [12] was 42.12 and the “The results of antibiotic drug inhibiting cancer cell lines (cell viability analysis), SAS” value [13] was 31.98. For the same compound, the “The results of antibiotic drug inhibiting cancer cell lines (cell viability analysis), MKN-45” value [14] was 72.97, the “The results of antibiotic drug inhibiting cancer cell lines (cell viability analysis), MDA-MB231” value [15] was 48.29 and the “The results of antibiotic drug inhibiting cancer cell lines (cell viability analysis), PC-3” value [16] was 54.81. For the same compound, the “The results of antibiotic drug inhibiting cancer cell lines (cell viability analysis), 786-O” value [17] was 18.27, the “The results of antibiotic drug inhibiting cancer cell lines (cell viability analysis), BxPC-3” value (BxPC-3) was 47.7 and the “The results of antibiotic drug inhibiting cancer cell lines (cell viability analysis), HepG2” value [18] was 102.4. For the same compound, the “inhibition effect on different cancer cell lines” value (cancer cell lines) was “significant inhibition effect”.
